Key:
Type in all cases: in vivo
[1] = system: chien Beagle; assay: Diuresis in the Beagle dog after injection, urine output over one hour; settings: for Emission d'urine en ml TOTAL: TOTAL (60 mn)
[2] = system: RAT; assay: Diuretic action with water-and-sodium overload in the rat; settings: for fuite de potassium: rat
Description: (§1) L'étude de l'activité diurétique a été effectuée comme suit : • l'expérience a été réalisée en utilisant la technique de LIPSCHITZ & Coll. (J. Pharm. Exp. Ther. 1943, 79, p. 97) modifiée pour la circonstance.
(§2) Des lots de 6 rats mâles, pesant environ 150 g, mis à jeun et privés de boisson la veille de l'essai, ont été placés par deux dans des cages à métabolisme pour une durée de 6 heures.
(§3) Les volumes urinaires ont été recueillis et mesurés toutes les heures, et la quantité d'urine excrétée est donnée en ml par heure et par rat.
(§4) Les dosages du chlore, du sodium et du potassium sont effectués sur les prélèvements de 6 heures et sont exprimés en Meq par litre d'urine et par 100 g de rat.
(§5) A partir de ces chiffres et par rapport aux témoins, des pourcentages d'augmentation ou de diminution de la diurèse ont pu être calculés.
Dans le tableau II figure l'action diurétique avec surcharge hydrosodée pour le composé A et le furosémide.

[3] = system: rats mâles; assay: Diuretic action with water overload in the rat (modified Lipschitz technique, oral); settings: for K = nbre de meq/L pour 100 g d'animal / Na = nbre de meq/L pour 100 g d'animal / dV = pourcentage du volume d'urine émise par rapport au lot témoin et ramené à 100 g de poids corporel: rat, oral, surcharge hydrique; for K = nbre de meq/L pour 100 g d'animal / Na = nbre de meq/L pour 100 g d'animal: 6 h urine; for dV = pourcentage du volume d'urine émise par rapport au lot témoin et ramené à 100 g de poids corporel: 6 h; for diurèse: summary in words of tableaux I à III
Description: as §1, §2
Les produits à essayer ont été administrés par voie orale, à la sonde, en même temps qu'une surcharge hydrique (eau du robinet à 37 °C), à raison de 5 ml pour 100 g de poids corporel.
as §3, §4, §5
L'excrétion urinaire est donnée par le rapport : [formula]
L'activité diurétique est obtenue en faisant le rapport : • E.U. traités • E.U. témoins
Dans le tableau I figure l'action diurétique avec surcharge hydrique pour les composés A, B et C, et pour le furosémide et l'hydrochlorothiazide.

[4] = 2 mg/kg, une heure, versus témoin

CN(C)n1c(=O)[nH]c2cc(Cl)c(S(N)(=O)=O)cc2c1=O [Composé A, Chloro-7 diméthylamino-3 dioxo-2,4 (1H,3H) sulfonamido-6 quinazoline]
sodium éliminé dans le volume d'urine émis ([1]; 2 mg/kg, une heure): ~10 fois celui du témoin | la diurèse est multipliée par [1, 4]: 600/100 | taux de potassium multiplié par [1, 4]: 1,2 | Emission d'urine en ml 0,5 mn ([1]; Dose I.V. 1 mg/kg, 0,5 mn): 3,5 ml | Emission d'urine en ml 5-10 mn ([1]; Dose I.V. 1 mg/kg): 5,0 ml | Emission d'urine en ml - 20 mn ([1]; Dose I.V. 1 mg/kg): 8,5 ml | Emission d'urine en ml - 30 mn ([1]; Dose I.V. 1 mg/kg): 7,0 ml | Emission d'urine en ml - 40 mn ([1]; Dose I.V. 1 mg/kg): 9,0 ml | Emission d'urine en ml - 50 mn ([1]; Dose I.V. 1 mg/kg): 8,0 ml | Emission d'urine en ml - 60mn ([1]; Dose I.V. 1 mg/kg): 9,0 ml | Emission d'urine en ml TOTAL ([1]; Dose I.V. 1 mg/kg): 50,0 ml | Emission d'urine en ml 0,5 mn ([1]; Dose I.V. 2 mg/kg, 0,5 mn): 8,0 ml | Emission d'urine en ml 5-10 mn ([1]; Dose I.V. 2 mg/kg): 14,5 ml | Emission d'urine en ml - 20 mn ([1]; Dose I.V. 2 mg/kg): 20,5 ml | Emission d'urine en ml - 30 mn ([1]; Dose I.V. 2 mg/kg): 18,5 ml | Emission d'urine en ml - 40 mn ([1]; Dose I.V. 2 mg/kg): 15,5 ml | Emission d'urine en ml - 50 mn ([1]; Dose I.V. 2 mg/kg): 11,5 ml | Emission d'urine en ml - 60mn ([1]; Dose I.V. 2 mg/kg): 8,5 ml | Emission d'urine en ml TOTAL ([1]; Dose I.V. 2 mg/kg): 97,0 ml | Emission d'urine en ml 0,5 mn ([1]; Dose I.V. 5 mg/kg, 0,5 mn): 9,5 ml | Emission d'urine en ml 5-10 mn ([1]; Dose I.V. 5 mg/kg): 10,5 ml | Emission d'urine en ml - 20 mn ([1]; Dose I.V. 5 mg/kg): 10,0 ml | Emission d'urine en ml - 30 mn ([1]; Dose I.V. 5 mg/kg): 8,0 ml | Emission d'urine en ml - 40 mn ([1]; Dose I.V. 5 mg/kg): 9,0 ml | Emission d'urine en ml - 50 mn ([1]; Dose I.V. 5 mg/kg): 5,5 ml | Emission d'urine en ml - 60mn ([1]; Dose I.V. 5 mg/kg): 7,0 ml | Emission d'urine en ml TOTAL ([1]; Dose I.V. 5 mg/kg): 59,5 ml | Emission d'urine en ml 0,5 mn ([1]; Dose I.V. 10 mg/kg, 0,5 mn): 4,0 ml | Emission d'urine en ml 5-10 mn ([1]; Dose I.V. 10 mg/kg): 8,0 ml | Emission d'urine en ml - 20 mn ([1]; Dose I.V. 10 mg/kg): 9,0 ml | Emission d'urine en ml - 30 mn ([1]; Dose I.V. 10 mg/kg): 10,0 ml | Emission d'urine en ml - 40 mn ([1]; Dose I.V. 10 mg/kg): 4,0 ml | Emission d'urine en ml - 50 mn ([1]; Dose I.V. 10 mg/kg): 8,0 ml | Emission d'urine en ml - 60mn ([1]; Dose I.V. 10 mg/kg): 7,5 ml | Emission d'urine en ml TOTAL ([1]; Dose I.V. 10 mg/kg): 50,5 ml | dose avec laquelle la diurèse maximale au bout d'une heure est atteinte ([1]; voie I.P., une heure): 2 mg/kg | action diurétique par rapport au furosémide ([2]; 10 mg/kg composé A sensiblement égale à 25 mg/kg de furosémide): sensiblement double | fuite de potassium ([2]; dose 10 mg/kg (doses équivalentes)): 19% | K = nbre de meq/L pour 100 g d'animal ([3]; dose 0,1 mg/kg): +19 meq/L pour 100 g d'animal | K = nbre de meq/L pour 100 g d'animal ([3]; dose 1 mg/kg): +18 meq/L pour 100 g d'animal | Na = nbre de meq/L pour 100 g d'animal ([3]; dose 1 mg/kg): +139,4 meq/L pour 100 g d'animal | dV = pourcentage du volume d'urine émise par rapport au lot témoin et ramené à 100 g de poids corporel ([3]; dose 10 mg/kg): +38,3% | K = nbre de meq/L pour 100 g d'animal ([3]; dose 10 mg/kg): +71 meq/L pour 100 g d'animal | Na = nbre de meq/L pour 100 g d'animal ([3]; dose 10 mg/kg): +551 meq/L pour 100 g d'animal | dV = pourcentage du volume d'urine émise par rapport au lot témoin et ramené à 100 g de poids corporel ([3]; dose 25 mg/kg): +39,7% | K = nbre de meq/L pour 100 g d'animal ([3]; dose 25 mg/kg): +67 meq/L pour 100 g d'animal | Na = nbre de meq/L pour 100 g d'animal ([3]; dose 25 mg/kg): +672 meq/L pour 100 g d'animal | dV = pourcentage du volume d'urine émise par rapport au lot témoin et ramené à 100 g de poids corporel ([3]; dose 50 mg/kg): +23,6% | K = nbre de meq/L pour 100 g d'animal ([3]; dose 50 mg/kg): +90 meq/L pour 100 g d'animal | Na = nbre de meq/L pour 100 g d'animal ([3]; dose 50 mg/kg): +606 meq/L pour 100 g d'animal | diurèse [3]: augmentent la diurèse

CCN(CC)n1c(=O)[nH]c2cc(Cl)c(S(N)(=O)=O)cc2c1=O [Composé B, Chloro-7 diéthylamino-3 dioxo-2,4 (1H,3H) sulfonamido-6 quinazoline]
K = nbre de meq/L pour 100 g d'animal ([3]; dose 1 mg/kg): +15 meq/L pour 100 g d'animal | Na = nbre de meq/L pour 100 g d'animal ([3]; dose 1 mg/kg): +160 meq/L pour 100 g d'animal | dV = pourcentage du volume d'urine émise par rapport au lot témoin et ramené à 100 g de poids corporel ([3]; dose 10 mg/kg): +30% | K = nbre de meq/L pour 100 g d'animal ([3]; dose 10 mg/kg): +35 meq/L pour 100 g d'animal | Na = nbre de meq/L pour 100 g d'animal ([3]; dose 10 mg/kg): +582 meq/L pour 100 g d'animal | dV = pourcentage du volume d'urine émise par rapport au lot témoin et ramené à 100 g de poids corporel ([3]; dose 25 mg/kg): +35% | K = nbre de meq/L pour 100 g d'animal ([3]; dose 25 mg/kg): +33 meq/L pour 100 g d'animal | Na = nbre de meq/L pour 100 g d'animal ([3]; dose 25 mg/kg): +671 meq/L pour 100 g d'animal | dV = pourcentage du volume d'urine émise par rapport au lot témoin et ramené à 100 g de poids corporel ([3]; dose 50 mg/kg): +31% | K = nbre de meq/L pour 100 g d'animal ([3]; dose 50 mg/kg): +21 meq/L pour 100 g d'animal | Na = nbre de meq/L pour 100 g d'animal ([3]; dose 50 mg/kg): +550 meq/L pour 100 g d'animal | diurèse [3]: augmentent la diurèse

NS(=O)(=O)c1cc2c(=O)n(N3CCCCC3)c(=O)[nH]c2cc1Cl [Composé C, Chloro-7 pipéridino-3 dioxo-2,4 (1H,3H) sulfonamido-6 quinazoline]
K = nbre de meq/L pour 100 g d'animal ([3]; dose 0,1 mg/kg): +15 meq/L pour 100 g d'animal | dV = pourcentage du volume d'urine émise par rapport au lot témoin et ramené à 100 g de poids corporel ([3]; dose 1 mg/kg): +15% | K = nbre de meq/L pour 100 g d'animal ([3]; dose 1 mg/kg): +17 meq/L pour 100 g d'animal | Na = nbre de meq/L pour 100 g d'animal ([3]; dose 1 mg/kg): +141 meq/L pour 100 g d'animal | dV = pourcentage du volume d'urine émise par rapport au lot témoin et ramené à 100 g de poids corporel ([3]; dose 10 mg/kg): +35% | K = nbre de meq/L pour 100 g d'animal ([3]; dose 10 mg/kg): +47 meq/L pour 100 g d'animal | Na = nbre de meq/L pour 100 g d'animal ([3]; dose 10 mg/kg): +513 meq/L pour 100 g d'animal | dV = pourcentage du volume d'urine émise par rapport au lot témoin et ramené à 100 g de poids corporel ([3]; dose 25 mg/kg): +31% | K = nbre de meq/L pour 100 g d'animal ([3]; dose 25 mg/kg): +42 meq/L pour 100 g d'animal | Na = nbre de meq/L pour 100 g d'animal ([3]; dose 25 mg/kg): +583 meq/L pour 100 g d'animal | dV = pourcentage du volume d'urine émise par rapport au lot témoin et ramené à 100 g de poids corporel ([3]; dose 50 mg/kg): +18% | K = nbre de meq/L pour 100 g d'animal ([3]; dose 50 mg/kg): +57 meq/L pour 100 g d'animal | Na = nbre de meq/L pour 100 g d'animal ([3]; dose 50 mg/kg): +531 meq/L pour 100 g d'animal | diurèse [3]: augmentent la diurèse

NS(=O)(=O)c1cc(C(=O)O)c(NCc2ccco2)cc1Cl [Furosémide, acide chloro-4 furfurylamino-2 sulfamoyl-5 benzoïque, reference compound]
fuite de potassium ([2]; dose 25 mg/kg (doses équivalentes)): 30,3% | K = nbre de meq/L pour 100 g d'animal ([3]; dose 10 mg/kg): -19 meq/L pour 100 g d'animal | dV = pourcentage du volume d'urine émise par rapport au lot témoin et ramené à 100 g de poids corporel ([3]; dose 25 mg/kg): +18% | dV = pourcentage du volume d'urine émise par rapport au lot témoin et ramené à 100 g de poids corporel ([3]; dose 50 mg/kg): +76% | K = nbre de meq/L pour 100 g d'animal ([3]; dose 50 mg/kg): +84 meq/L pour 100 g d'animal | Na = nbre de meq/L pour 100 g d'animal ([3]; dose 50 mg/kg): +639 meq/L pour 100 g d'animal | diurèse [3]: augmentent la diurèse

NS(=O)(=O)c1cc2c(cc1Cl)NCNS2(=O)=O [Hydrochloro-thiazide, dioxo-1,1 chloro-6 dihydro-3,4 sulfamoyl-7 (1,2,4)H benzothiadiazine, reference compound]
Na = nbre de meq/L pour 100 g d'animal ([3]; dose 0,1 mg/kg): +6,9 meq/L pour 100 g d'animal | dV = pourcentage du volume d'urine émise par rapport au lot témoin et ramené à 100 g de poids corporel ([3]; dose 1 mg/kg): +38% | K = nbre de meq/L pour 100 g d'animal ([3]; dose 1 mg/kg): +29 meq/L pour 100 g d'animal | Na = nbre de meq/L pour 100 g d'animal ([3]; dose 1 mg/kg): +374 meq/L pour 100 g d'animal | dV = pourcentage du volume d'urine émise par rapport au lot témoin et ramené à 100 g de poids corporel ([3]; dose 10 mg/kg): +40% | K = nbre de meq/L pour 100 g d'animal ([3]; dose 10 mg/kg): +22 meq/L pour 100 g d'animal | Na = nbre de meq/L pour 100 g d'animal ([3]; dose 10 mg/kg): +430 meq/L pour 100 g d'animal | dV = pourcentage du volume d'urine émise par rapport au lot témoin et ramené à 100 g de poids corporel ([3]; dose 25 mg/kg): +48% | K = nbre de meq/L pour 100 g d'animal ([3]; dose 25 mg/kg): +44 meq/L pour 100 g d'animal | Na = nbre de meq/L pour 100 g d'animal ([3]; dose 25 mg/kg): +504 meq/L pour 100 g d'animal | diurèse [3]: augmentent la diurèse
